Assay results as given in the supplement of paper PMC11061612.

Columns and labels:
Assay in all cases: Bliss excess, mean over the matrix (fraction); higher = more synergy
[1] = system: LU-139 (Small Cell Lung Carcinoma)
Summary of the method: (§1)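 Bliss excess equals the observed combination effect minus the expected value EA + EB − EA·EB, where EA and EB are the effects of each agent alone. Combination Emax is the second-highest inhibition within the matrix. Inhibition was scaled from CellTiter-Glo 2.0 luminescence, with 0 set by vehicle wells and 1 by blank wells, after 72 hours of two-drug dosing of cells plated in 1536-well plates.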

[2] = system: HDLM-2 (Hodgkin's Lymphoma)
Summary of the method: as §1

[3] = system: HARA (Squamous Cell Lung Carcinoma)
Summary of the method: as §1

[4] = system: COLO-829 (Melanoma)
Summary of the method: as §1

[5] = system: TE-4 (Esophageal Squamous Cell Carcinoma)
Summary of the method: as §1

[6] = system: KARPAS-231 (B-Cell Non-Hodgkin's Lymphoma)
Summary of the method: as §1

[7] = system: SK-OV-3 (Ovarian Carcinoma)
Summary of the method: as §1

[8] = system: MHH-PREB-1 (B-Cell Non-Hodgkin's Lymphoma)
Summary of the method: as §1

[9] = system: SW626 (Colorectal Carcinoma)
Summary of the method: as §1

[10] = system: NCI-H747 (Colorectal Carcinoma)
Summary of the method: as §1

[11] = system: KYSE-410 (Esophageal Squamous Cell Carcinoma)
Summary of the method: as §1

[12] = system: CAL-54 (Kidney Carcinoma)
Summary of the method: as §1

[13] = system: Mewo (Melanoma)
Summary of the method: as §1

[14] = system: OVCAR-8 (Ovarian Carcinoma)
Summary of the method: as §1

[15] = system: MDA-MB-468 (Breast Carcinoma)
Summary of the method: as §1

[16] = system: NCI-H69 (Small Cell Lung Carcinoma)
Summary of the method: as §1

[17] = system: NB14 (Neuroblastoma)
Summary of the method: as §1

[18] = system: NCI-H28 (Mesothelioma)
Summary of the method: as §1

[19] = system: LoVo (Colorectal Carcinoma)
Summary of the method: as §1

[20] = system: SUP-T1 (T-Lymphoblastic Leukemia)
Summary of the method: as §1

SMILES | Bliss excess [1] | Bliss excess [2] | Bliss excess [3] | Bliss excess [4] | Bliss excess [5] | Bliss excess [6] | Bliss excess [7] | Bliss excess [8] | Bliss excess [9] | Bliss excess [10] | Bliss excess [11] | Bliss excess [12] | Bliss excess [13] | Bliss excess [14] | Bliss excess [15] | Bliss excess [16] | Bliss excess [17] | Bliss excess [18] | Bliss excess [19] | Bliss excess [20]
CC1(C)CCC(CN2CCN(c3ccc(C(=O)NS(=O)(=O)c4ccc(NCC5CCOCC5)c([N+](=O)[O-])c4)c(Oc4cnc5[nH]ccc5c4)c3)CC2)=C(c2ccc(Cl)cc2)C1 [Venetoclax] + Cc1cc2ncnn2cc1Nc1ncc2c(n1)n(C1CCOCC1)c(=O)n2C [AZD7648] (first compound max 1 µM, 7x7, partner max 10 µM) | -0.0013 | 0.0551 | -0.03 | -0.0367 | -0.0106 | -0.124 | -0.134 | 0.0028 | -0.0098 | -0.0124 | -0.0471 | -0.0295 | -0.0181 | -0.0014 | -0.0299 | -0.0227 | -0.0033 | -0.0166 | -0.0526 | -0.0109
Cc1nc(Nc2ncc(C(=O)Nc3c(C)cccc3Cl)s2)cc(N2CCN(CCO)CC2)n1 [Dasatinib] + CC(=O)Nc1cccc(-n2c(=O)n(C3CC3)c(=O)c3c(Nc4ccc(I)cc4F)n(C)c(=O)c(C)c32)c1 [Trametinib] (first compound max 2 µM, 7x7, partner max 1 µM) | -0.0243 | -0.0467 | -0.0523 | -0.159 | -0.12 | -0.0267 | -0.075 | -0.0504 | 0.0385 | -0.0238 | -0.0622 | -0.0031 | 0.0254 | 0.0396 | -0.0521 | -0.048 | -0.065 | -0.0021 | 0.104 | -0.0967
CC1(C)CCC(CN2CCN(c3ccc(C(=O)NS(=O)(=O)c4ccc(NCC5CCOCC5)c([N+](=O)[O-])c4)c(Oc4cnc5[nH]ccc5c4)c3)CC2)=C(c2ccc(Cl)cc2)C1 [Venetoclax] + C[C@@H]1COCCN1C2=NC(=NC(=C2)C3(CC3)[S@](=N)(=O)C)C4=C5C=CNC5=NC=C4 [AZD6738] (first compound max 1 µM, 7x7, partner max 10 µM) | -0.0111 | 0.0068 | -0.0787 | 0.0059 | -0.0337 | -0.18 | -0.012 | 0.0046 | -0.0492 | -0.0621 | -0.0473 | -0.0737 | -0.0285 | -0.0444 | -0.028 | -0.0494 | -0.0005 | -0.059 | -0.0637 | -0.0098
NC1(C(=O)N[C@@H](CCO)c2ccc(Cl)cc2)CCN(c2ncnc3[nH]ccc23)CC1 [Capivasertib] + CC(C)n1c(=O)n(C)c2cnc3cc(F)c(-c4ccc(OCCCN5CCCCC5)nc4)cc3c21 [AZD1390] (first compound max 10 µM, 7x7, partner max 0.3 µM) | -0.0204 | -0.0002 | -0.0216 | -0.126 | -0.0233 | -0.0035 | -0.0754 | -0.0353 | -0.0828 | -0.0791 | -0.0795 | -0.0687 | -0.0597 | -0.0304 | -0.0464 | -0.0793 | -0.0269 | -0.0776 | -0.043 | -0.0615
CC(=O)c1c(C)c2cnc(Nc3ccc(N4CCNCC4)cn3)nc2n(C2CCCC2)c1=O [Palbociclib] + CC1(C)CCC(CN2CCN(c3ccc(C(=O)NS(=O)(=O)c4ccc(NCC5CCOCC5)c([N+](=O)[O-])c4)c(Oc4cnc5[nH]ccc5c4)c3)CC2)=C(c2ccc(Cl)cc2)C1 [Venetoclax] (first compound max 10 µM, 7x7, partner max 1 µM) | 0.0462 | 0.0073 | 0.0119 | 0.0199 | -0.0113 | -0.103 | -0.0531 | -0.0187 | -0.0152 | 0.017 | -0.0511 | -0.008 | -0.0235 | -0.0167 | -0.0241 | -0.0624 | -0.0103 | -0.0169 | -0.0178 | -0.0942
Cc1c2c(nn1C)CSCc1cc(n(C)n1)CSc1cc(c3ccccc3c1)OCCCc1c(C(=O)O)n(C)c3c-2c(Cl)ccc13 [AZD5991] + C[C@@H]1COCCN1C2=NC(=NC(=C2)C3(CC3)[S@](=N)(=O)C)C4=C5C=CNC5=NC=C4 [AZD6738] (first compound max 1 µM, 7x7, partner max 10 µM) | 0.0214 | -0.0291 | -0.0283 | 0.0471 | 0.0683 | 0.0252 | 0.0538 | -0.0095 | 0.0268 | -0.018 | 0.0281 | -0.0259 | -0.0329 | 0.001 | 0.0455 | -0.0477 | -0.0038 | 0.0026 | -0.033 | -0.024
Cc1c2c(nn1C)CSCc1cc(n(C)n1)CSc1cc(c3ccccc3c1)OCCCc1c(C(=O)O)n(C)c3c-2c(Cl)ccc13 [AZD5991] + C=CCn1c(=O)c2cnc(Nc3ccc(N4CCN(C)CC4)cc3)nc2n1-c1cccc(C(C)(C)O)n1 [AZD1775] (first compound max 1 µM, partner max 1 µM) | -0.0421 | 0.0055 | 0.0014 | -0.0169 | 0.0115 | 0.0195 | 0.0698 | 0.0023 | 0.0446 | -0.0103 | 0.0218 | -0.0522 | -0.0347 | -0.0075 | -0.0956 | -0.116 | -0.0137 | -0.0023 | -0.064 | 0.0028
